The results in this text go back to US12209079B2 (GENERAL INCORPORATED ASSOCIATION PHARMA VALLEY PROJECT …, priority 2017, dated 2025).

Molecules are shown by their SMILES. Counter-ions that a name gives are not always drawn.

In experiment [1] the target is rhIDO (recombinant human IDO) (Homo sapiens, UniProt P14902). Nature of the experiment: Enzyme assay using rhIDO (rate of kynurenine production). Particulars: 2 h; final concentration of the compound 10 μM; rate relative to reaction without compound; read-out: rhIDO-mediated kynurenine production. In kind it is biochemical. Here is the method:
Enzyme Assay Protocol Using rhIDO (Recombinant Human IDO)
4 μL of a compound solution was added to 176 μL of a rhIDO reaction solution (0.5 M potassium phosphate buffer (20 μL), 0.2 M ascorbic acid (20 μL), 0.5 mM methylene blue (4 μL), 10 mg/mL catalase (2 μL), H2O (128 μL), and rhIDO (2 μL)). The mixture was pipetted and preincubated at 37° C. for 10 minutes. Then, the whole amount was brought to 200 μL by the addition of 20 μL of a 2 mM aqueous tryptophan solution, and the mixture was pipetted again and reacted at 37° C. for 120 minutes. After the reaction, the enzymatic reaction was terminated by the addition of 40 μL of a 30% [v/v] aqueous trichloroacetic acid solution to the reaction solution. The mixture was well stirred by pipetting and heated at 50° C. for 15 minutes so that N-formylkynurenine was converted to kynurenine. The reaction solution thus heated was centrifuged (15,000 rpm, 5 min, 24° C.), and 150 μL of the supernatant was transferred to a transparent 96-well flat-bottomed plate, followed by the measurement of absorbance at 490 nm using SpectraMax MSSK (background measurement). After the measurement, a solution of 2% [w/v] p-dimethylbenzaldehyde in acetic acid was added at 150 μL/well and reacted for 5 minutes, followed by the measurement of absorbance at 490 nm again. The rate of kynurenine production was calculated according to the following expression. Rate of kynurenine production (%) for each compound in the case of using rhIDO={(Absorbance at 490 nm in the tryptophan-containing aqueous solution comprising rhIDO and the compound of the present invention−Absorbance of the background)/(Absorbance at 490 nm in the tryptophan-containing aqueous solution without the addition of the compound solution−Absorbance of the background)}×100 Enzyme Assay Protocol Using rhTDO (Recombinant Human TDO)

The target in experiment [2] is rhTDO (recombinant human TDO) (Homo sapiens, UniProt P48775). As to the kind of experiment: Enzyme assay using rhTDO (rate of kynurenine production). In kind it is biochemical. Particulars: 2 h; final concentration of the compound 10 μM; rate relative to reaction without compound; read-out: rhTDO-mediated kynurenine production. Here is the method:
4 μL of a compound solution was added to 176 μL of a rhTDO reaction solution (0.5 M potassium phosphate buffer (20 μL), 0.2 M ascorbic acid (20 μL), 0.5 mM methylene blue (4 μL), 10 mg/mL catalase (2 μL), H2O (128 μL), and rhTDO (2 μL)). The mixture was pipetted and preincubated at 37° C. for 10 minutes. Then, the whole amount was brought to 200 μL by the addition of 20 μL of a 20 mM aqueous tryptophan solution, and the mixture was pipetted again and reacted at 37° C. for 120 minutes. After the reaction, the enzymatic reaction was terminated by the addition of 40 μL of a 30% [v/v] aqueous trichloroacetic acid solution to the reaction solution. The mixture was well stirred by pipetting and heated at 50° C. for 15 minutes so that N-formylkynurenine was converted to kynurenine. The reaction solution thus heated was centrifuged (15,000 rpm, 5 min, 24° C.), and 150 μL of the supernatant was transferred to a transparent 96-well flat-bottomed plate, followed by the measurement of absorbance at 490 nm using SpectraMax M5 SK (background measurement). After the measurement, a solution of 2% [w/v] p-dimethylbenzaldehyde in acetic acid was added at 150 μL/well and reacted for 5 minutes, followed by the measurement of absorbance at 490 nm again. The rate of kynurenine production was calculated according to the following expression. Rate of kynurenine production (%) for each compound in the case of using rhTDO={(Absorbance at 490 nm in the tryptophan-containing aqueous solution comprising rhTDO and the compound of the present invention−Absorbance of the background)/(Absorbance at 490 nm in the tryptophan-containing aqueous solution without the addition of the compound solution−Absorbance of the background)}×100 IDO Cell-Based Assay Protocol

The target in experiment [3] is T1, IDO in A431 cells (Homo sapiens, UniProt P14902).
T1 construct: endogenous in cells; host or cells: A431 cells, IFN-γ stimulated
T1 sequence (P14902 whole entry): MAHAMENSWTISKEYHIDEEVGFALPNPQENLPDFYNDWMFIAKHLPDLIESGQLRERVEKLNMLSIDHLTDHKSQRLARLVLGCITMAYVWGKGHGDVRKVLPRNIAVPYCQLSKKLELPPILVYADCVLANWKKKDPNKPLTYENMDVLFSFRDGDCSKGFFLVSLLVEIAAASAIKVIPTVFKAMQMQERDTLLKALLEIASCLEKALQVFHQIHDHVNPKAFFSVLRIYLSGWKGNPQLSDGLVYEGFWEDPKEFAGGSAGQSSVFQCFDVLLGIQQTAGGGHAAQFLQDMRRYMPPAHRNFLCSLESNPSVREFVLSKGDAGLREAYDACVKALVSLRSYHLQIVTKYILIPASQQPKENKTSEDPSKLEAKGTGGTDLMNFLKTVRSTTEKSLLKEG
As to the kind of experiment: IDO cell-based assay, kynurenine production in IFN-γ stimulated A431 cells. As to conditions: A-431, 24 h; final concentration of the compound 10 μM; rate relative to culture without compound. As for the experimental part: A431 cells (3.0×10^5 cells/mL) suspended in a culture medium for assay (D-MEM; Wako 040-30095, 5% FBS, 50 units/mL penicillin, 50 μg/mL streptomycin, and 2 mM L-glutamine) were inoculated at 100 μL/well to a transparent 96-well flat-bottomed plate and cultured at 37° C. for 24 hours in 5% CO2. The culture medium was removed from the cells thus cultured. A tryptophan-containing culture medium (culture medium for assay supplemented with 178 μM L-tryptophan) was added at 80 μL/well, and further, a compound solution was added at 10 μL/well. The cells were preincubated for 1 hour. Then, the whole amount was brought to 100 μL/well by the addition of 10 μL/well of IFN-γ diluted into 100 ng/mL with a tryptophan-containing culture medium, and the cells were cultured for 24 hours. After the culture, absorbance was measured at 460 nm using SpectraMax MSSK (Molecular Devices, LLC) (background measurement). After the measurement, a kynurenine quantification reagent (prepared with 7% [v/v] aqueous trichloroacetic acid solution and a solution of 2% [w/v] p-dimethylbenzaldehyde in acetic acid at 2:5 [v/v]) was added at 200 μL/well and reacted for 5 minutes, followed by the measurement of absorbance at 460 nm again. The rate of kynurenine production was calculated according to the following expression. Rate of kynurenine production (%) for each compound in the case of using A431 cells={(Absorbance at 460 nm in the tryptophan-containing culture medium comprising the A431 cells and the solution of the compound of the present invention−Absorbance of the background)/(Absorbance at 460 nm in the tryptophan-containing culture medium without the addition of the compound solution−Absorbance of the background)}×100 TDO Cell-Based Assay Protocol

The target of experiment [4] is T2, TDO in A172 cells (Homo sapiens, UniProt P48775).
T2 construct: endogenous in cells; host or cells: A172 cells
T2 sequence (P48775 whole entry): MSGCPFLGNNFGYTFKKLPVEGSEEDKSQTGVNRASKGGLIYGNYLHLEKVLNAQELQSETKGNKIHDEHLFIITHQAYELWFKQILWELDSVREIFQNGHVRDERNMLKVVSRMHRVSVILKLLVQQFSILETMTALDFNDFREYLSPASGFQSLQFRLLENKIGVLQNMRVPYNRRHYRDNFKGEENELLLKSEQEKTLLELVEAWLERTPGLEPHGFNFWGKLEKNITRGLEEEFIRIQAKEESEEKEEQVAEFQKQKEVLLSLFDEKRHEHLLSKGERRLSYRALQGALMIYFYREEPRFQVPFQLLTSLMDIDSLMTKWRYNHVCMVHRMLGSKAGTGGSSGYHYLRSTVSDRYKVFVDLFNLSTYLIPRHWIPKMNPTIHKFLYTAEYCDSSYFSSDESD
Nature of the experiment: TDO cell-based assay, kynurenine production in A172 cells. As to conditions: A 172; final concentration of the compound 10 μM; rate relative to culture without compound. Here is the method: A172 cells (3.0×10^5 cells/mL) suspended in a culture medium for assay (PRMI-1640; Wako 186-02155, 5% FBS, 50 units/mL penicillin, and 50 μg/mL streptomycin) were inoculated at 100 μL/well to a transparent 96-well flat-bottomed plate and cultured at 37° C. for 24 hours in 5% CO2. The culture medium was removed from the cells thus cultured. A culture medium for assay was added at 80 μL/well, and further, a compound solution was added at 10 μL/well. The cells were preincubated for 1 hour. Then, the whole amount was brought to 100 μL/well by the addition of 10 μL/well of a 5 mM aqueous tryptophan solution (final concentration of L-tryptophan: 524 μM), and the cells were cultured for 24 hours. After the culture, absorbance was measured at 460 nm using SpectraMax MSSK (Molecular Devices, LLC) (background measurement). After the measurement, a kynurenine quantification reagent (prepared with 7% [v/v] aqueous trichloroacetic acid solution and a solution of 2% [w/v] p-dimethylbenzaldehyde in acetic acid at 2:5 [v/v]) was added at 200 μL/well and reacted for 5 minutes, followed by the measurement of absorbance at 460 nm again. The rate of kynurenine production was calculated according to the following expression. Rate of kynurenine production (%) for each compound in the case of using A172 cells={(Absorbance at 460 nm in the tryptophan-containing culture medium comprising the A172 cells and the solution of the compound of the present invention−Absorbance of the background)/(Absorbance at 460 nm in the tryptophan-containing culture medium without the addition of the compound solution−Absorbance of the background)}×100

Chain of rhTDO (recombinant human TDO) (P48775 whole entry): as above
Chain of rhIDO (recombinant human IDO) (P14902 whole entry): as the sequence (P14902 whole entry) above

`Clc1ccccc1CCN1CN=C(SCc2ccc(Br)cc2CSC2=NCN(CCc3ccccc3Cl)CN2)NC1` [Compound 53, 6,6′-(((4-Bromo-1,2-phenylene)bis(methylene))bis(sulfanediyl))bis(3-(2-chlorophenethyl)-1,2,3,4-tetrahydro-1,3,5-triazine)]: the remaining activity at 10 µM in experiment [1] came out at 16%; in experiment [2] it was 19%; in experiment [3], 5%; in experiment [4], 17%.

As for `Fc1ccc(CSC2=NCN(CCc3ccc(C(F)(F)F)cc3)CN2)c(CSC2=NCN(CCc3ccc(C(F)(F)F)cc3)CN2)c1` [Compound 140, 6,6′-(((4-Fluoro-1,2-phenylene)bis(methylene))bis(sulfanediyl))bis(3-(4-(trifluoromethyl)phenethyl)-1,2,3,4-tetrahydro-1,3,5-triazine)], the remaining activity at 10 µM in experiment [1] is 34%; in experiment [2], 16%; in experiment [3], 15%; in experiment [4], 9%.

As to `Fc1ccc(CSC2=NCN(CC3CCCCC3)CN2)c(CSC2=NCN(CC3CCCCC3)CN2)c1` [Compound 121, 6,6′-(((4-Fluoro-1,2-phenylene)bis(methylene))bis(sulfanediyl))bis(3-(cyclohexylmethyl)-1,2,3,4-tetrahydro-1,3,5-triazine)], the remaining activity at 10 µM is 29% in experiment [1], 7% in experiment [2], 14% in experiment [3] and 11% in experiment [4].

As for `Fc1ccc(CSC2=NCN(CC3CC3)CN2)c(CSC2=NCN(CC3CC3)CN2)c1` [Compound 120, 6,6′-(((4-Fluoro-1,2-phenylene)bis(methylene))bis(sulfanediyl))bis(3-(cyclopropylmethyl)-1,2,3,4-tetrahydro-1,3,5-triazine)], the remaining activity at 10 µM in experiment [1] is 41%; in experiment [2], 8%; in experiment [3], 14%; in experiment [4], 7%.

On to `Cc1ccc(C)c(CCN2CN=C(SCc3ccccc3CSC3=NCN(CCc4cc(C)ccc4C)CN3)NC2)c1` [Compound 24, 1,2-bis(((5-(2,5-dimethylphenethyl)-1,4,5,6-tetrahydro-1,3,5-triazin-2-yl)thio)methyl)benzene], for which the remaining activity at 10 µM in experiment [1] was 27%; in experiment [2], 25%; in experiment [3], 4%; in experiment [4], -2%.

On to `Brc1ccc(CSC2=NCN(CCC3CCCCC3)CN2)c(CSC2=NCN(CCC3CCCCC3)CN2)c1` [Compound 60, 6,6′-(((4-Bromo-1,2-phenylene)bis(methylene))bis(sulfanediyl))bis(3-(2-cyclohexylethyl)-1,2,3,4-tetrahydro-1,3,5-triazine)], for which the remaining activity at 10 µM in experiment [1] is 6%; in experiment [2], 6%; in experiment [3] it was 1%; in experiment [4], 4%.

On to `N=C(N)SCc1cc(Br)ccc1C(=O)NCCc1ccc(Cl)cc1` [Compound 78, 5-Bromo-2-((4-chlorophenethyl)carbamoyl)benzyl carbamimidothioate hydrobromide], for which the remaining activity at 10 µM in experiment [1] is 74%; in experiment [2], 25%; in experiment [3] it was 112%; in experiment [4], 56%.

Take `N#Cc1ccc(CNC(=O)c2cc(Br)ccc2CS/C(N)=N/c2ccc(F)c(Cl)c2)cc1` [Compound 118, 4-Bromo-2-((4-cyanobenzyl)carbamoyl)benzyl (E)-N′-(3-chloro-4-fluorophenyl)carbamimidothioate hydrobromide]: the remaining activity at 10 µM in experiment [1] stood at 15%; in experiment [2], 35%; in experiment [3], 3%; in experiment [4] it was 20%.

In the case of `N/C(=N\c1ccc(F)c(Cl)c1)SCc1cc(Br)ccc1C(=O)NCc1ccc(Cl)cc1` [Compound 83, 5-Bromo-2-((4-chlorobenzyl)carbamoyl)benzyl (E)-N′-(3-chloro-4-fluorophenyl)carbamimidothioate hydrobromide], the remaining activity at 10 µM in experiment [1] turned out to be 80%; in experiment [2] it was 59%; in experiment [3], 75%; in experiment [4], 21%.

Consider `N#Cc1ccc(CNC(=O)c2ncccc2CS/C(N)=N/c2ccc(F)c(Cl)c2)cc1` [Compound 101, (2-((4-Cyanobenzyl)carbamoyl)pyridin-3-yl)methyl (E)-N′-(3-chloro-4-fluorophenyl)carbamimidothioate hydrobromide], for which the remaining activity at 10 µM in experiment [1] came to 78%; in experiment [2], 84%; in experiment [3] it was 61%; in experiment [4] it was 70%.
